Measured values from publication PMC3026848 (Bioorganic & medicinal chemistry, 2010).
Like-named read-outs stand apart in the source and are kept apart here.

Key:
[1] = system: A431(human skin cancer); test: Screening against A431; type: cell-based; details: unpublished data from this laboratory
[2] = system: UO-31 (human renal cancer); test: Screening against UO-31; type: cell-based; details: unpublished data from this laboratory
[3] = system: PC-3 (human prostate cancer); test: Screening against PC-3; type: cell-based; details: unpublished data from this laboratory
[4] = system: UACC-62 cells; test: Cell cycle distribution by flow cytometry; type: cell-based, human; details: UACC-62, 6 days, 0.01 µM to 1 µM, PI staining
[5] = system: NCI-H226 (human lung cancer); test: Screening against NCI-H226; type: cell-based; details: unpublished data from this laboratory
[6] = cited from earlier work
[7] = high dosages; cited from earlier work
[8] = system: melanoma; details: melanoma chemotherapy; cited from earlier work

SMILES: CC(=O)N[C@@H](CSC(=O)Nc1ccc(Cl)cc1)C(=O)O [NACC, N-Acetyl-S-(p-chlorophenylcarbamoyl)cysteine]
- activity against A431 [1]: Poor activities
- activity against UO-31 [2]: Poor activities
- activity against PC-3 [3]: Poor activities
- effect on cell cycle distribution [4]: no change in cell cycle distribution was observed
- activity against NCI-H226 [5]: Poor activities
- protein binding ([6]; reported earlier): 84%

SMILES: O=C(Nc1ccc(Cl)cc1)NS(=O)(=O)c1ccc2c(c1)CCC2 [Sulofenur, reference compound]
- adverse effects in clinical trials [7]: hemolytic anemia and methemoglobinemia were observed
- protein binding [6]: greater than 99%

SMILES: CN(C)/N=N/c1[nH]cnc1C(N)=O [Dacarbazine, dacarbazine]
- response rate [8]: 10% to 20
